Values after ≈ are worked out from the molar mass of the structure shown. Like-named read-outs stand apart in the source and are kept apart here.
Columns and labels:
B. fragilis A22696 = experiment: M.I.C., tube dilution; assay type: cell-based; settings: Bacteroides fragilis, overnight incubation at 37° C., Nutrient Broth
E. coli A-15119 = experiment: Protective effect in intramuscular treatment of infected mice; assay type: in vivo; settings: Escherichia coli, im; mice, i.m.; E. coli A15119; read-out: PD50/treatment
Description: (§1) The PD50 (dose in mg/kg required to give protection to 50% of the infected mice) is indicated.
with drugs 0 and 2 hours postinfection.
(§2) The PD50 (dose in mg/kg) required to give protection to 50% of the infected mice is indicated.

P. mirabilis A-9900 [1] = experiment: as above; assay type: in vivo; settings: Proteus mirabilis, im; mice, i.m.; P. mirabilis A9900; read-out: PD50/treatment
Description: as §1
with drugs 0 and 2 hours postinfection.
as §2

[2] = Blood levels in mice after intramuscular administration;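 note: compounds dissolved in 0.1 M phosphate buffer at pH 7, data from one experiment using four mice for each compound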
Excerpt: Compounds were solubilized in 0.1 M phosphate buffer pH 7.
a single test; 4 mice used per compound.
Compounds were solubilized in 0.1 M phosphate buffer, pH 7.
on a single test; 4 mice per compound.

P. aeruginosa A-9843a [3] = experiment: animal or person; assay type: in vivo, mice
Description: as §1
with drugs 0 and 2 hours postinfection.
as §2

H. influenzae A-9833 = experiment: M.I.C., tube dilution; assay type: cell-based; settings: Haemophilus influenzae, A9833; overnight incubation at 37° C., Nutrient Broth
K. pneumoniae A9664 = experiment: Protective effect in intramuscular treatment of infected mice; assay type: in vivo; settings: Klebsiella pneumoniae, im, K. pneumoniae A9664, read-out: PD50/treatment
Excerpt: as §2

S. faecalis A20688 = experiment: M.I.C., tube dilution; assay type: cell-based; settings: Nutrient Broth
[4] = tested on: S. aureus A15097 (Meth-res.); experiment: M.I.C., tube dilution; assay type: cell-based; settings: Staphylococcus aureus, overnight incubation at 37° C.
P. vulgaris A21559 = experiment: M.I.C., tube dilution; assay type: cell-based; settings: Nutrient Broth
P. aeruginosa A21213 = experiment: M.I.C., tube dilution; assay type: cell-based; settings: Nutrient Broth
H. influenzae A21518 = experiment: M.I.C., tube dilution; assay type: cell-based; settings: Haemophilus influenzae, overnight incubation at 37° C., Nutrient Broth
S. aureus A-9606 = experiment: Protective effect in intramuscular treatment of infected mice; assay type: in vivo; settings: Staphylococcus aureus, im; mice, i.m.; S. aureus A9606; read-out: PD50/treatment
Description: as §1
with drugs 0 and 2 hours postinfection.
as §2

P. aeruginosa A24081 = experiment: as above; assay type: in vivo; settings: Pseudomonas aeruginosa, im; mice, i.m.; P. aeruginosa A24081; read-out: PD50/treatment
Excerpt: as §2

E. coli A15119 = experiment: M.I.C., tube dilution; assay type: cell-based; settings: overnight incubation at 37° C., Nutrient Broth; listed as Ex. 15 "B"
S. aureus A-9537 = experiment: M.I.C., tube dilution; assay type: cell-based; settings: listed as Ex. 15 "B"
E. coli A20341-1 = experiment: M.I.C., tube dilution; assay type: cell-based; settings: overnight incubation at 37° C., Nutrient Broth; listed as Ex. 15 "B"
P. aeruginosa A-9843A [5] = experiment: M.I.C., tube dilution; assay type: cell-based; settings: overnight incubation at 37° C., Nutrient Broth; listed as Ex. 15 "B"
K. pneumoniae A20468 = experiment: M.I.C., tube dilution; assay type: cell-based; settings: overnight incubation at 37° C., Nutrient Broth; listed as Ex. 15 "B"
E. cloacae A-9656 = experiment: M.I.C., tube dilution; assay type: cell-based; settings: overnight incubation at 37° C., Nutrient Broth
S. marcescens A20019 = experiment: M.I.C., tube dilution; assay type: cell-based; settings: overnight incubation at 37° C., Nutrient Broth; listed as Ex. 15 "B"
K. pneumoniae A-9664 = experiment: M.I.C., tube dilution; assay type: cell-based; settings: overnight incubation at 37° C., Nutrient Broth
S. pyogenes A-9604 = experiment: M.I.C., tube dilution; assay type: cell-based; settings: overnight incubation at 37° C., Nutrient Broth; listed as Ex. 15 "B"
P. morganii A15153 = experiment: M.I.C., tube dilution; assay type: cell-based; settings: printed M. morganii A15153; overnight incubation at 37° C.; listed as Ex. 15 "B"
P. mirabilis A-9900 [6] = experiment: M.I.C., tube dilution; assay type: cell-based; settings: overnight incubation at 37° C., Nutrient Broth
S. pneumoniae A-9585 = experiment: M.I.C., tube dilution; assay type: cell-based; settings: overnight incubation at 37° C., Nutrient Broth
P. rettgeri A22424 = experiment: M.I.C., tube dilution; assay type: cell-based; settings: overnight incubation at 37° C., Nutrient Broth; listed as Ex. 15 "B"
E. cloacae A-9659 = experiment: M.I.C., tube dilution; assay type: cell-based; settings: overnight incubation at 37° C., Nutrient Broth; listed as Ex. 15 "B"
[7] = tested on: S. aureus A-9606 (Pen-res.); experiment: M.I.C., tube dilution; assay type: cell-based; settings: overnight incubation at 37° C., listed as Ex. 15 "B"
[8] = mice, 20 mg/kg i.m. (table 9), 20 mg/kg
[9] = overnight incubation at 37° C., listed as Ex. 15 "B"

C[C@@H](O)[C@H]1C(=O)N2C(C(=O)[O-])=C(SCc3ccc[n+](C)c3)C[C@H]12 [Example 3, 3-(N-Methylpyridine-3-yl-methanethio)-6α-[1-(R)-hydroxyethyl]-7-oxo-1-azabicyclo(3.2.0)hept-2-ene-2-carboxylate]
MIC (B. fragilis A22696): 0.5 mg/L (≈ 1.5 µM) | ED50 (E. coli A-15119): 1 mg/kg | ED50 (P. mirabilis A-9900 [1]): 2 mg/kg | AUC ([2]; mouse, blood, im, 20 mg/kg): 6.9 µg·h/mL | Cmax ([2]; mouse, blood, im, 20 mg/kg): 14.5 µg/mL | half-life ([2]; mouse, blood, im, 20 mg/kg): 10 min | ED50 (P. aeruginosa A-9843a [3]; Pseudomonas aeruginosa, A9843A, in Mus musculus, im, read-out: PD50/treatment): 0.5 mg/kg | MIC (H. influenzae A-9833): 2 mg/L (≈ 5.98 µM) | ED50 (K. pneumoniae A9664): 3 mg/kg | MIC (S. faecalis A20688; Enterococcus faecalis, A20688, overnight incubation at 37° C., read-out: MIC): 0.5 mg/L (≈ 1.5 µM) | MIC [4]: 4 mg/L (≈ 12 µM) | MIC (P. vulgaris A21559; Proteus vulgaris, A21559, overnight incubation at 37° C., read-out: MIC): 0.016 mg/L (≈ 0.0478 µM) | MIC (P. aeruginosa A21213; Pseudomonas aeruginosa, A21213, overnight incubation at 37° C., read-out: MIC): 0.5 mg/L (≈ 1.5 µM) | MIC (H. influenzae A21518): 2 mg/L (≈ 5.98 µM) | ED50 (S. aureus A-9606): 0.07 mg/kg | ED50 (P. aeruginosa A24081): 0.8 mg/kg

C[C@@H](O)C1C(=O)N2C(C(=O)[O-])=C(SCc3cn(C)n[n+]3C)CC12 (stereo partly drawn) [Example 15 "B", 3-[4-(N,N-dimethyl-1,2,3-triazolium)methylthio]-6α-[1-(R)-hydroxyethyl]-7-oxo-1-azabicyclo(3.2.0)hept-2-ene-2-carboxylate]
MIC (E. coli A15119): 0.008 mg/L (≈ 0.0236 µM) | T1/2 ([2]; mice, 20 mg/kg i.m. (table 9)): 10 min | AUC [2, 8]: 7.4 µg·h/mL | Cmax [2, 8]: 15.9 µg/mL | PD50/treatment (P. aeruginosa A-9843a [3]; mice, i.m., P. aeruginosa A9843A): 0.89 mg/kg | MIC (S. aureus A-9537; +50% serum): 0.016 mg/L (≈ 0.0473 µM) | MIC (S. aureus A-9537; overnight incubation at 37° C., Nutrient Broth): 0.004 mg/L (≈ 0.0118 µM) | MIC (E. coli A20341-1): 0.008 mg/L (≈ 0.0236 µM) | MIC (S. faecalis A20688; overnight incubation at 37° C.): 0.5 mg/L (≈ 1.48 µM) | MIC (P. aeruginosa A-9843A [5]): 2 mg/L (≈ 5.91 µM) | MIC (K. pneumoniae A20468): 0.016 mg/L (≈ 0.0473 µM) | MIC (P. vulgaris A21559; [9]): 0.008 mg/L (≈ 0.0236 µM) | MIC (P. aeruginosa A21213; [9]): 0.13 mg/L (≈ 0.384 µM) | MIC (E. cloacae A-9656): 0.03 mg/L (≈ 0.0887 µM) | MIC (S. marcescens A20019): 0.016 mg/L (≈ 0.0473 µM) | MIC (K. pneumoniae A-9664): 0.03 mg/L (≈ 0.0887 µM) | MIC (S. pyogenes A-9604): 0.001 mg/L (≈ 0.00296 µM) | MIC (P. morganii A15153): 0.06 mg/L (≈ 0.177 µM) | MIC (P. mirabilis A-9900 [6]): 0.03 mg/L (≈ 0.0887 µM) | MIC (S. pneumoniae A-9585): 0.0005 mg/L (≈ 0.00148 µM) | MIC (P. rettgeri A22424): 0.13 mg/L (≈ 0.384 µM) | MIC (E. cloacae A-9659): 0.016 mg/L (≈ 0.0473 µM) | MIC [7]: 0.008 mg/L (≈ 0.0236 µM)
